Measurements from patent US6723702B2, “Use of relaxin treat diseases related to vasoconstriction” (RAS Medical, Inc., priority 2000, dated 2004).

Experiments:
[1] = tested on: Female Sprague-Dawley rats; test: Kidney function in cyclosporine-treated rats; format: in vivo, rat; conditions: for GFR / Urine Flow: Normal = 1.0
Protocol: Relaxin (rhRlx) was administrated via subcutaneous pumps at dose of either 0.1 mg/kg/day or 0.5 mg/kg/day for 10 days (day 0-10). On day B2 (baseline), Day 4, and Day 9, all rats were put into metabolic cages. The 24-hour urine volume was measured to calculate urine flow rate using the following formula: […]
Blood and urine were collected for creatinine measurement to calculate the GFR using the following formula: […]

[2] = tested on: rat aortic endothelial cells; test: 3H-thymidine uptake, rat endothelial cells; format: cell-based; conditions: serum-free medium
Protocol: (§1) Endothelial cells were derived from explant cultures of human neonatal foreskin and rat aorta. Primary human endothelial cells from umbilical vein, aorta, and lung were purchased from Clonetics-BioWhittaker Corporation (San Diego, Calif.) and cultured according to vendor instructions. ^3H-thymidine uptake was performed, as previously described, in serum-free medium. Unemori et al. (1994) Exp. Cell Res. 21:166-171.
(§2) Relaxin was then assayed for the ability to induce proliferation of endothelial cells directly. Relaxin's potential mitogenic effect was tested on human primary umbilical vein, aortic, foreskin, and pulmonary endothelial cells, as well as rat aortic endothelial cells. […] Alterations in other aspects of endothelial cell phenotype that are believed to correlate with angiogenesis were also tested. Relaxin had no effect on collagen expression, judged by SDS-PAGE of ^3H-proline-labeled cellular proteins; or metalloproteinase or tissue inhibitor of metalloproteinase-1 secretion, assessed by gelatin zymography. […] Therefore, relaxin had no apparent effect directly on endothelial cells.

[3] = tested on: infarct and peri-infarct areas of the left ventricle; test: Rat LCAL model: number of venules on H & E sections; format: in vivo
Protocol: Female Sprague Dawley rats, approximately 12-weeks of age were used. Rats were anesthetized by intraperitoneal (i.p.) injection of up to 1 ml/kg ketamine/medetomidine (6:4). Following exteriorization of the heart, the left coronary artery was ligated near its origin with a silk suture. In sham surgery control animals, the suture was placed superficially into the muscle adjacent to the coronary artery. Post-closure EKG's were monitored for S-T segment elevation in LCAL animals to confirm the outcome of ligation. Immediately following cardiac surgery, a primed mini-osmotic pump containing relaxin or vehicle (20 mM acetate, pH 5.0) was aseptically implanted into a subcutaneous (s.c.) pocket on the dorsal interscapular region. Vehicle or relaxin (0.1 mg/kg/day) was delivered as a continuous s.c. infusion for 7 or 21 days to either sham or LCAL animals. Animals were terminated on day 7 or 21, and the peri-infarct regions anterior to the scar in the left ventricle, or equivalent sites on sham surgery animals were harvested.
The number of venules, arterioles and capillaries in the infarct and peri-infarct areas of the left ventricle were quantified by counting individual vessels on H & E (hematoxylin and eosin) stained sections. Numbers of venules, arterioles and capillaries were determined by counting in the area of the infarct, and in the right and left junction areas between the infarcted free wall and viable myocardium. Quantitation of venules and arterioles were obtained as total number of vessels in the entire area in each of 3 H&E stained transverse sections of the heart, i.e. apical, basal and midway between apical and basal levels. Quantitation was performed by a histopathologist blinded to the treatment groups. Venules comprised the observed increases in numbers of collateral vessels post-infarction. All veins counted in high dry fields were summed to yield vessel number per level. Three levels (apical, basal, and middle) were summed for each animal to yield total number of veins. N=4-5 animals per treatment group. […]

[4] = tested on: human primary umbilical vein, aortic, foreskin, and pulmonary endothelial cells; test: 3H-thymidine uptake, human endothelial cells; format: cell-based; conditions: serum-free medium
Protocol: as §1, §2

human subjects = test: Clinical trial: blood pressure and creatinine clearance; format: in vivo
Protocol: A clinical trial was conducted with human subjects, age 18 to 70 years. Subjects were treated with either 10 μg relaxin/kg body weight/day (minimum of 36 subjects), 25 μg relaxin/kg body weight/day (minimum of 72 subjects), or placebo (minimum of 72 subjects) for 24 weeks. Administration was by continuous subcutaneous infusion, using a pump. The relaxin was recombinant human relaxin (rhRlx). At various time points, diastolic blood pressure, systolic blood pressure, and creatinine clearance (as a measure of renal function) were measured. Creatinine clearance was calculated using the following formulas:
Creatinine clearance=((140−age)×weight (kg)/72×serum creatinine (mg/dL))×0.85
Creatinine clearance=(140−age)×weight (kg)/72×serum creatinine (mg/dL)
The change in each measured parameter was calculated (value at week x-week 0 value). […] The threshold for obtaining this effect was greater than 10 μg rhRLXN/kg/day. […] This latter result indicates an increase in blood flow.

[5] = CsA and rhRlx at either 0.1 mg/kg or 0.5 mg/kg
[6] = Normal rats + 0.5 mg/kg, Day 10

In the case of “rhRLX: recombinant human relaxin, identical in amino acid sequence to the product of the human H2 gene; A chain of 24, B chain of 29 amino acids”, the GFR ([1]; CsA + 0.1 mg/kg, Day 5) is reported as 0.99 ± 0.15, the “Urine Flow” value ([1]; CsA + 0.1 mg/kg, Day 5) is reported as 1.21 ± 0.36 and the GFR ([1]; CsA + 0.1 mg/kg, Day 10) is reported as 1.49 ± 0.18. The “Urine Flow” value ([1]; CsA + 0.1 mg/kg, Day 10) was 1.59 ± 0.41, the GFR ([1]; CsA + 0.5 mg/kg, Day 5) was 1.231 ± 0.15 and the “Urine Flow” value ([1]; CsA + 0.5 mg/kg, Day 5) was 1.27 ± 0.16. For the same substance, the GFR ([1]; CsA + 0.5 mg/kg, Day 10) was 1.39 ± 0.13, the “Urine Flow” value ([1]; CsA + 0.5 mg/kg, Day 10) was 1.067 ± 0.11 and the “creatinine clearance compared to animals treated with CsA alone” value [1, 5] was “significantly improved”. For the same substance, the “urine flow rate compared to animals treated with CsA alone” value [1, 5] was “significantly improved”, the GFR ([1]; Normal rats + 0.5 mg/kg, Day 5) was 1.47 ± 0.08 and the “Urine Flow” value ([1]; Normal rats + 0.5 mg/kg, Day 5) was 1.68 ± 0.02. The GFR [1, 6] was 1.50 ± 0.09, the “Urine Flow” value [1, 6] was 1.42 ± 0.01 and the “creatinine clearance compared to the baseline” value ([1]; normal rats, 0.5 mg/kg, day 5) was 147%. The “urine flow rate compared to the baseline” value ([1]; normal rats, 0.5 mg/kg, day 5) was 168%, the 3H-thymidine uptake [2] was “did not alter” and the “number of venules in the infarct region” value ([3]; day 7, 0.1 mg/kg/day) was 163±8. For the same substance, the “number of venules (vessel number) in the infarct region” value ([3]; day 21, 0.1 mg/kg/day) was 209±13, the “number of vessels in analogous area of the left ventricle” value ([3]; sham surgery) was “did not alter” and the 3H-thymidine uptake [4] was “did not alter”. The “renal function, as measured by creatinine clearance” value (human subjects; 10 μg rhRLXN/kg/day (FIG. 12)) was “improvement”, the “renal function, as measured by creatinine clearance” value (human subjects; 25 μg rhRLXN/kg/day (FIG. 13)) was “improvement” and the diastolic pressure (human subjects; 25 μg/kg/day s.c. infusion, about week 2 through week 24 (FIG. 10)) was “reduced”. For the same substance, the systolic pressure (human subjects; 25 μg/kg/day s.c. infusion, about week 2 through week 24 (FIG. 11)) was “reduced” and the “threshold for reducing diastolic and systolic pressure” value (human subjects; human, in vivo) was “greater than 10 μg rhRLXN/kg/day”.
